From paper PMC3935609 (Biochemistry, 2013)

Legend:
[1] = target: T1, GLIC (Gloeobacter violaceus ligand-gated ion channel) (Gloeobacter violaceus, UniProt Q7NDN8); test: [3H]AziPm photoaffinity labeling of purified GLIC at pH […] with Edman sequencing; format: cell-based
T1 sequence (Q7NDN8 44-359): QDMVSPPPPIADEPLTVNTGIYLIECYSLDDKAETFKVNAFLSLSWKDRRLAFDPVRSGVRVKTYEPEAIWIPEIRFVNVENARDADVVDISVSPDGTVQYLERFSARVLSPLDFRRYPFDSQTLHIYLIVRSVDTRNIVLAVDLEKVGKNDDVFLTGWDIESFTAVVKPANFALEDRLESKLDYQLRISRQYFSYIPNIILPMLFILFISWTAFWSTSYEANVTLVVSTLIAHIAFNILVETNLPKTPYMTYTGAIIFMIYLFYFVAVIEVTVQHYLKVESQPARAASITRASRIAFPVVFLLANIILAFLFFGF

[2] = target: T1, GLIC (Gloeobacter violaceus ligand-gated ion channel); test: competition; format: cell-based

| Compound | IC50 [1] | IC50 [2] |
| --- | --- | --- |
| CC(C)c1ccc(C2(C(F)(F)F)N=N2)cc1O [AziPm, 2-isopropyl-5-[3-(trifluoromethyl)-3H-diazirin-3-yl]phenol] | 51.4 ± 5.3 µM |  |
| CC(C)c1cccc(C(C)C)c1O [PPF, Propofol] |  | 21.4 ± 1.2 µM |
